The record followed here is patent US9131690B2, “Macrocyclic picolinamides as fungicides” (Dow AgroSciences LLC, priority 2012, dated 2015).

Read-outs that look alike come from different tables or passages of the source.

The subject of series [1] is Mycosphaerella graminicola; Anamorph: Septoria tritici. The series can be described thus: Fungicidal activity: Leaf Blotch of Wheat (SEPTTR), wheat plants variety Yuma. The class given is in vivo. More on the design: key to SEPTTR 3DC Disease Control: A: 50-100; B: More than 0-Less than 50; C: Not Tested; D: No activity noticed in this bioassay. To be noted: for pest or weed control at 100 ppm: Zymoseptoria tritici. The protocol: Evaluation of Fungicidal Activity: Leaf Blotch of Wheat (Mycosphaerella graminicola; Anamorph: Septoria tritici; Bayer Code […]) Wheat plants (variety Yuma) were grown from seed in a greenhouse in 50% mineral soil/50% soil-less Metro mix until the first leaf was fully emerged, with 7-10 seedlings per pot. These plants were inoculated with an aqueous spore suspension of Septoria tritici either prior to or after fungicide treatments. After inoculation the plants were kept in 100% relative humidity (one day in a dark dew chamber followed by two to three days in a lighted dew chamber) to permit spores to germinate and infect the leaf. The plants were then transferred to a greenhouse at 20° C. for disease to develop.

Series [2] deals with Puccinia triticina. Synonym: Puccinia recondite f. sp. tritici. The series can be described thus: Fungicidal activity: Wheat Brown Rust (PUCCRT), wheat plants variety Yuma. The format is in vivo. More on the design: key to PUCCRT 3DC Disease Control: A: 50-100; B: More than 0-Less than 50; C: Not Tested; D: No activity noticed in this bioassay. To be noted: for PUCCRT 3DC Disease Control: 100 ppm; for pest or weed control at 100 ppm: Puccinia triticina. On the procedure: Evaluation of Fungicidal Activity: Wheat Brown Rust (Puccinia triticina. Synonym: Puccinia recondite f. sp. tritici; Bayer Code PUCCRT) Wheat plants (variety Yuma) were grown from seed in a greenhouse in 50% mineral soil/50% soil-less Metro mix until the first leaf was fully emerged, with 7-10 seedlings per pot. These plants were inoculated with an aqueous spore suspension of Puccinia recondite f. sp. tritici either prior to or after fungicide treatments. After inoculation the plants were kept in 100% relative humidity overnight to permit spores to germinate and infect the leaf. The plants were then transferred to a greenhouse set at 24 C for disease to develop.

The mark [3] stands for this setting: 24 h, 1 Day Protectant, read-out: SEPTTR 1DP Disease Control.
The mark [4] stands for this setting: 72 h, 3 Day Curative, read-out: SEPTTR 3DC Disease Control.
The mark [5] stands for this setting: 24 h, 1 Day Protectant, read-out: PUCCRT 1DP Disease Control.
[6] abbreviates: 72 h, 3 Day Curative, read-out: PUCCRT 3DC Disease Control.

As usually defined, the melting point is the temperature of the solid-liquid transition. For `COc1ccnc(C(=O)N[C@H]2COC(=O)[C@H](CCOC(=O)C3CC3)[C@@H](OC(=O)C(C)C)[C@H](C)OC2=O)c1O` [Compound 38], the melting point was in the range of 157 to 159 °C. The pest or weed control at 100 ppm in series [1] (setting [3]) lay in the range of 50 to 100%. Moreover, the pest or weed control at 100 ppm in series [1] (setting [4]) lay within 0 to 50%. In series [2] (3 Day Curative), the “PUCCRT 3DC Disease Control” value is recorded as “D”. Besides, the pest or weed control at 100 ppm in series [2] (setting [5]) fell in the range of 50 to 100%.

With `COc1ccnc(C(=O)N[C@H]2COC(=O)[C@H](CCOC(=O)c3ccc4c(c3)OCO4)[C@@H](OC(=O)C(C)C)[C@H](C)OC2=O)c1O` [Compound 39], the melting point was 159 to 161 °C. Further, in series [1] (setting [3]), the pest or weed control at 100 ppm fell in the range of 50 to 100%. Moreover, the pest or weed control at 100 ppm in series [1] (setting [4]) was in the range of 0 to 50%. In addition, the pest or weed control at 100 ppm in series [2] (setting [5]) fell in the range of 50 to 100%. The pest or weed control at 100 ppm in series [2] (setting [6]) was in the range of 0 to 50%.

In turn, `COc1ccnc(C(=O)N[C@H]2COC(=O)[C@H](CCOC(=O)c3ccc(-c4ccccc4)cc3)[C@@H](OC(=O)C(C)C)[C@H](C)OC2=O)c1O` [Compound 40] displayed a melting point of 178 to 179 °C. Besides, the pest or weed control at 100 ppm in series [1] (setting [3]) was 50 to 100%. For the same compound, the pest or weed control at 100 ppm in series [1] (setting [4]) lay within 0 to 50%. Besides, the “PUCCRT 3DC Disease Control” value in series [2] (3 Day Curative) was “D”. Besides, in series [2] (setting [5]), the pest or weed control at 100 ppm is 50 to 100%.

As to `COc1ccnc(C(=O)N[C@H]2COC(=O)[C@H](CCOC(=O)c3ccc(C(F)(F)F)cc3)[C@@H](OC(=O)C(C)C)[C@H](C)OC2=O)c1O` [Compound 42], the melting point lay within 160 to 162 °C. In addition, in series [1] (setting [3]), the pest or weed control at 100 ppm lay in the range of 0 to 50%. Besides, the pest or weed control at 100 ppm in series [1] (setting [4]) was in the range of 0 to 50%. The “PUCCRT 3DC Disease Control” value in series [2] (3 Day Curative) is “D”. Moreover, the pest or weed control at 100 ppm in series [2] (setting [5]) was in the range of 50 to 100%.

For `COc1ccnc(C(=O)N[C@H]2COC(=O)[C@H](CCOC(=O)c3c(F)c(F)c(F)c(F)c3F)[C@@H](OC(=O)C(C)C)[C@H](C)OC2=O)c1O` [Compound 43], the melting point lay in the range of 167 to 168 °C. In addition, the pest or weed control at 100 ppm in series [1] (setting [3]) is 50 to 100%. Also, the pest or weed control at 100 ppm in series [1] (setting [4]) was 0 to 50%. The pest or weed control at 100 ppm in series [2] (setting [5]) lay within 50 to 100%. Further, the pest or weed control at 100 ppm in series [2] (setting [6]) is 0 to 50%.

In turn, `CCOCC[C@H]1C(=O)OC[C@H](NC(=O)c2nccc(OC)c2O)C(=O)O[C@@H](C)[C@@H]1OC(=O)C(C)C` [Compound 45] registered a melting point of 134 to 136 °C. In addition, the pest or weed control at 100 ppm in series [1] (setting [3]) fell in the range of 0 to 50%. The pest or weed control at 100 ppm in series [1] (setting [4]) fell in the range of 0 to 50%. The pest or weed control at 100 ppm in series [2] (setting [5]) is 50 to 100%. For the same compound, in series [2] (setting [6]), the pest or weed control at 100 ppm lay within 50 to 100%.

With `COc1ccnc(C(=O)N[C@H]2COC(=O)[C@H](C)[C@@H](OC(=O)C(C)C)[C@H](C)OC2=O)c1O` [Compound 46, (3S,6S,7R,8R)-3-(3-hydroxy-4-methoxypicolinamido)-6,8-dimethyl-4,9-dioxo-1,5-dioxonan-7-yl isobutyrate], the melting point fell in the range of 198 to 200 °C. In addition, the “SEPTTR 3DC Disease Control” value in series [1] (100 ppm, 3 Day Curative) is “D”. For the same compound, the pest or weed control at 100 ppm in series [1] (setting [3]) lay within 50 to 100%. The pest or weed control at 100 ppm in series [2] (setting [5]) was 50 to 100%. Besides, in series [2] (setting [6]), the pest or weed control at 100 ppm lay within 0 to 50%.

Compound `COc1ccnc(C(=O)N[C@H]2COC(=O)[C@H](CC(=O)OC(C)(C)C)[C@@H](OC(=O)C(C)C)[C@H](C)OC2=O)c1O` [Compound 47, (3S,6S,7R,8R)-8-(2-tert-butoxy-2-oxoethyl)-3-(3-hydroxy-4-methoxypicolinamido)-6-methyl-4,9-dioxo-1,5-dioxonan-7-yl isobutyrate] came in with a melting point of 192 to 194 °C. For the same compound, in series [1] (setting [3]), the pest or weed control at 100 ppm is 50 to 100%. Besides, the pest or weed control at 100 ppm in series [1] (setting [4]) lay within 50 to 100%. Further, the pest or weed control at 100 ppm in series [2] (setting [5]) was in the range of 50 to 100%. The pest or weed control at 100 ppm in series [2] (setting [6]) lay in the range of 50 to 100%.

Consider `COc1ccnc(C(=O)N[C@H]2COC(=O)[C@H](CC(=O)Oc3ccccc3)[C@@H](OC(=O)C(C)C)[C@H](C)OC2=O)c1O` [Compound 48], for which the melting point lay in the range of 176 to 178 °C. The pest or weed control at 100 ppm in series [1] (setting [3]) lay in the range of 50 to 100%. Moreover, the pest or weed control at 100 ppm in series [1] (setting [4]) was 0 to 50%. The “PUCCRT 3DC Disease Control” value in series [2] (3 Day Curative) is given as “D”. Also, the pest or weed control at 100 ppm in series [2] (setting [5]) was in the range of 50 to 100%.
